{"source": "patent US4499104A", "about": "“Imidazole compound, the process for its preparation, and therapeutically active compositions containing same” (priority 1976, dated 1985)", "key": {"[1]": {"test": "Anticonvulsive activity against cardiazole", "assay_type": "in vivo, Rockland-Ocefa mice", "details": "for Protection from convulsivant cardiazole, first value: first of two values; for Protection from convulsivant cardiazole, second value: second of two values", "protocol": "Rockland-Ocefa mice of both sexes weighing 22±3 g and fasting for 16 hours were used."}, "[2]": {"test": "Anticonvulsive activity against strychnine", "assay_type": "in vivo, Rockland-Ocefa mice", "details": "for Protection from convulsivant strychnine, first value: first of two values; for Protection from convulsivant strychnine, second value: second of two values", "protocol": "Rockland-Ocefa mice of both sexes weighing 22±3 g and fasting for 16 hours were used. The convulsive agents were administered i.p. in doses of 2 mg/kg of strychnine sulphate and 110 mg/kg of cardiazole."}, "human": {"test_system": "human", "test": "Human therapy", "assay_type": "in vivo"}, "Rat [3]": {"test_system": "Rat", "test": "Acute toxicity, rat"}, "Rat [4]": {"test_system": "Rat", "details": "in vivo"}, "[5]": {"test": "Antipyretic activity, hyperthermia by beer yeast in rat", "assay_type": "in vivo, Wistar stock", "details": "oral, 1/10 of DL50; chlorophenazole 50 mg/kg, phenylbutazone 35 mg/kg", "protocol": "It was then measured in the rat using 10 animals of Wistar stock per group weighing 170-200 g, made hyperthermal by subcutaneous injection of a 10% beer yeast suspension in distilled water.\nThe compounds awere administered orally 60 minutes after the induction of fever in doses equal to 1/10 of the DL50. Readings were taken at 30 minute intervals for 5 hours."}, "rats": {"test_system": "rats", "test": "Chronic toxicity, first experiment (60 days)", "assay_type": "in vivo, Wistar-Ocefa rats", "details": "60 days", "protocol": "Wistar-Ocefa rats of both sexes weighing 70-90 g were used, divided into groups of 30 animals (15 males and 15 females) to a total of […].\nChlorophenazole and phenylbutazone (reference drug) were administered orally for a period of 60 days in doses of 30-60 mg/kg of chlorophenazole and 8-160 mg/kg of phenylbutazone (first experiment) and for a period of 5 months in doses of 6-12 mg/kg of chlorophenazole and 16 mg/kg of phenylbutazone (second experiment).\nThe following parameters were determined periodically: behavior, general state, food consumption, body weight, red blood cell number, white blood cell number, leucocite formula, hemoglobin, hematocrit, globular value, total proteins, glycemia, azotemia, cholesterol, total lipids, triglycerides, creatinine, GOT, GPT, urine analysis. At the end of the experiment the animals were sacrificed, their general state was observed, the following organs were weighed: liver, spleen, kidneys, supranenes, ovary and testicles, lungs, heart, stomach."}, "[6]": {"test": "Antipyretic activity, hyperthermia by lysate of Neisseria perflava in rabbit", "assay_type": "in vivo, male albino rabbits", "details": "oral", "protocol": "This was first studied in the rabbit, using 6 male albino rabbits of 3-3.5 kg per group, made hyperthermal by i.v. injection of 0.5 ml/kg of a lysate of Neisseria perflava. The rectal temperature was determined by thermocouples every 60 minutes for 3 hours. The difference in temperature was calculated between maximum elevation and base temperature at each time. The drug was administered orally."}, "[7]": {"test": "Edema by carrageen (rat paw), antiedematous activity", "assay_type": "in vivo, Rats of the Wistar-Roux-Ocefa stock", "protocol": "A 1% physiological solution of carrageen was used. Rats of the Wistar-Roux-Ocefa stock having a weight of 150±30 g were used. The drugs were suspended in 1% carboxymethylcellulose or dissolved in distilled water and administered orally one hour before the inflammatory agent in a volume of 0.5 ml/100 g. The carrageen was adminstered subcutaneously in the subplanetary region of one of the rear paws. The volume of the paw was measured platysmagraphically initially and then after 1.5 hour, 3 hours and 5 hours after administering the carrageen. One inflammation unit was defined as the displacement of 0.01 ml of Hg.\nThe edema was evaluated as the difference in volume of the rear paw before and after the carrageen. The DE 50 was calculated by the probits method and graphically. The comparison drugs used were phenylbutazone and niflumic acid."}, "Dog": {"test_system": "Dog", "test": "Acute toxicity, dog", "assay_type": "in vivo"}, "[8]": {"test": "Hot plate method (thermal stimulus), analgesic activity", "assay_type": "in vivo, Male mice", "protocol": "This is based on the time (seconds) taked by the mouse for removing his paws from a plate heated to 56° C. Male mice were used of weight 25 to 27 g, preselected so that all reacted in a time less than 20 seconds.\nThe reaction time was measured 15, 30 and 60 minutes after administering the drugs. The chlorophenazole was tested orally and subcutaneously, both alone and associated with morphine hydrochloride. […] (FIGS. 2 and 3)."}}, "note": "Entries after “also recorded” stand apart in the source; their conditions may differ.", "data": [{"smiles": "Cc1[nH]cnc1-c1ccc(Cl)cc1", "note": "[Chlorophenazole, 4-(p-chlorophenyl)-5-methylimidazole]", "values": [{"measurement": "Protection from convulsivant cardiazole, first value", "setting": "[1]; 50 mg/kg, 15'", "result": 6.23}, {"measurement": "Protection from convulsivant cardiazole, second value", "setting": "[1]; 50 mg/kg, 15'", "result": 6.70}, {"measurement": "Protection from convulsivant cardiazole, first value", "setting": "[1]; 50 mg/kg, 30'", "result": 10.80}, {"measurement": "Protection from convulsivant cardiazole, second value", "setting": "[1]; 50 mg/kg, 30'", "result": 8.30}, {"measurement": "Protection from convulsivant cardiazole, first value", "setting": "[1]; 50 mg/kg, 90'", "result": 8.10}, {"measurement": "Protection from convulsivant cardiazole, second value", "setting": "[1]; 50 mg/kg, 90'", "result": 7.0}, {"measurement": "Protection from convulsivant cardiazole, first value", "setting": "[1]; 100 mg/kg, 15'", "result": 9.90}, {"measurement": "Protection from convulsivant cardiazole, second value", "setting": "[1]; 100 mg/kg, 15'", "result": 8.90}, {"measurement": "Protection from convulsivant cardiazole, first value", "setting": "[1]; 100 mg/kg, 30'", "result": 13.00}, {"measurement": "Protection from convulsivant cardiazole, second value", "setting": "[1]; 100 mg/kg, 30'", "result": 26.40}, {"measurement": "Protection from convulsivant cardiazole, first value", "setting": "[1]; 100 mg/kg, 90'", "result": 28.70}, {"measurement": "Protection from convulsivant cardiazole, second value", "setting": "[1]; 100 mg/kg, 90'", "result": 20.00}, {"measurement": "Protection from convulsivant cardiazole, second value", "setting": "[1]; 200 mg/kg, 15'", "result": 9.2}, {"measurement": "Protection from convulsivant cardiazole, second value", "setting": "[1]; 200 mg/kg, 30'", "result": 27.30}, {"measurement": "Protection from convulsivant cardiazole, second value", "setting": "[1]; 200 mg/kg, 90'", "result": 30.10}, {"measurement": "framework of convulsive death", "setting": "[1]; cardiazole and strychnine", "result": "does not modify the framework of convulsive death"}, {"measurement": "premortal period", "setting": "[1]; cardiazole and strychnine", "result": "significant elongation of the premortal period"}, {"measurement": "Protection from convulsivant strychnine, first value", "setting": "[2]; 50 mg/kg, 15'", "result": 7.0}, {"measurement": "Protection from convulsivant strychnine, second value", "setting": "[2]; 50 mg/kg, 15'", "result": 7.4}, {"measurement": "Protection from convulsivant strychnine, first value", "setting": "[2]; 50 mg/kg, 30'", "result": 12.8}, {"measurement": "Protection from convulsivant strychnine, second value", "setting": "[2]; 50 mg/kg, 30'", "result": 12.6}, {"measurement": "Protection from convulsivant strychnine, first value", "setting": "[2]; 50 mg/kg, 90'", "result": 8.7}, {"measurement": "Protection from convulsivant strychnine, second value", "setting": "[2]; 50 mg/kg, 90'", "result": 13.8}, {"measurement": "Protection from convulsivant strychnine, first value", "setting": "[2]; 100 mg/kg, 15'", "result": 11.7}, {"measurement": "Protection from convulsivant strychnine, second value", "setting": "[2]; 100 mg/kg, 15'", "result": 19.5}, {"measurement": "Protection from convulsivant strychnine, first value", "setting": "[2]; 100 mg/kg, 30'", "result": 11.3}, {"measurement": "Protection from convulsivant strychnine, second value", "setting": "[2]; 100 mg/kg, 30'", "result": 13.8}, {"measurement": "Protection from convulsivant strychnine, first value", "setting": "[2]; 100 mg/kg, 90'", "result": 9.5}, {"measurement": "Protection from convulsivant strychnine, second value", "setting": "[2]; 100 mg/kg, 90'", "result": 11.5}, {"measurement": "Protection from convulsivant strychnine, first value", "setting": "[2]; 200 mg/kg, 15'", "result": 28.6}, {"measurement": "Protection from convulsivant strychnine, second value", "setting": "[2]; 200 mg/kg, 15'", "result": 18.3}, {"measurement": "Protection from convulsivant strychnine, first value", "setting": "[2]; 200 mg/kg, 30'", "result": 12.8}, {"measurement": "Protection from convulsivant strychnine, second value", "setting": "[2]; 200 mg/kg, 30'", "result": 16.0}, {"measurement": "Protection from convulsivant strychnine, first value", "setting": "[2]; 200 mg/kg, 90'", "result": 18.2}, {"measurement": "Protection from convulsivant strychnine, second value", "setting": "[2]; 200 mg/kg, 90'", "result": 21.0}, {"measurement": "pharmacological results in human therapy", "setting": "human", "result": "fully confirmed in human therapy"}, {"measurement": "symptoms preceding death", "setting": "Rat [3]; rat and mouse, acute toxicity", "result": "reduction in spontaneous motility, sedation, hypotherma, paralysis"}, {"measurement": "acute toxicity values and therapeutic index relative to phenylbutazone", "setting": "Rat [3]; summary", "result": "well in excess of those for phenylbutazone"}, {"measurement": "toxicity relative to niflumic acid", "setting": "Rat [4]", "result": "much less toxic than the latter"}, {"measurement": "antipyretic activity relative to phenylbutazone", "setting": "[5]", "result": "superiority over phenylbutazone"}, {"measurement": "stomach appearance", "setting": "rats", "result": "distended and rose colored"}, {"measurement": "cholesterol", "setting": "rats; larger doses", "result": "the same for cholesterol at the larger doses"}, {"measurement": "protection from temperature increase", "setting": "[6]", "result": "clearly protected the animals from temperature increase"}, {"measurement": "Δ Volume of the inflamed paw", "setting": "[7]; 10 mg/kg oral, 1.5 hours", "result": 15, "unit": "UPI"}, {"measurement": "Δ Volume of the inflamed paw", "setting": "[7]; 10 mg/kg oral, 3 hours", "result": 35, "unit": "UPI"}, {"measurement": "Δ Volume of the inflamed paw", "setting": "[7]; 10 mg/kg oral, 5 hours", "result": 58, "unit": "UPI"}, {"measurement": "Δ Volume of the inflamed paw", "setting": "[7]; 20 mg/kg oral, 1.5 hours", "result": 15, "unit": "UPI"}, {"measurement": "Δ Volume of the inflamed paw", "setting": "[7]; 20 mg/kg oral, 3 hours", "result": 29, "unit": "UPI"}, {"measurement": "Δ Volume of the inflamed paw", "setting": "[7]; 20 mg/kg oral, 5 hours", "result": 44, "unit": "UPI"}, {"measurement": "Δ Volume of the inflamed paw", "setting": "[7]; 40 mg/kg oral, 1.5 hours", "result": 15, "unit": "UPI"}, {"measurement": "Δ Volume of the inflamed paw", "setting": "[7]; 40 mg/kg oral, 3 hours", "result": 23, "unit": "UPI"}, {"measurement": "Δ Volume of the inflamed paw", "setting": "[7]; 40 mg/kg oral, 5 hours", "result": 42, "unit": "UPI"}, {"measurement": "IT (DL50/DE50)", "setting": "[7]; DL50/DE50, os", "result": 73.60}, {"measurement": "ED50", "setting": "[7]; Rattus norvegicus, po, os, probits method and graphically, read-out: DE50 (the source's name)", "result": 7, "unit": "mg/kg"}, {"measurement": "antiedematous activity relative to comparison drugs", "setting": "[7]; oral", "result": "more active than phenylbutazone; also recorded: only slightly more active than niflumic acid"}, {"measurement": "antiinflamatory analgesic activity, overall comparison", "setting": "[7]; summary of the tests", "result": "decidedly better than phenylbutazone, niflumic acid, clonixine or mepyrazole"}, {"measurement": "DL100", "setting": "Dog", "result": 50, "unit": "mg/kg"}, {"measurement": "reaction time relative to control mice", "setting": "[8]; 50 mg/kg oral", "result": "significantly prolongs the reaction time relative to the control mice"}, {"measurement": "effect on morphine analgesia", "setting": "[8]; associated with morphine hydrochloride", "result": "evident increase exerted by the drug on morphine analgesia"}]}]}
